# Measurements published in the NIST ThermoML archive (doi:10.1021/je800895q).
# ± gives the expanded uncertainty stated by the source.
structure (smiles),measurement,setting,value
CCCCn1cc[n+](C)c1.F[P-](F)(F)(F)(F)F [1-butyl-3-methylimidazolium hexafluorophosphate],surface tension liquid-gas,287.6 K,44.41 ± 0.37 mN/m
same,surface tension liquid-gas,288.14 K,44.47 ± 0.37 mN/m
same,surface tension liquid-gas,292.88 K,44.11 ± 0.37 mN/m
same,surface tension liquid-gas,292.99 K,44.28 ± 0.37 mN/m
same,surface tension liquid-gas,297.86 K,44.03 ± 0.37 mN/m
same,surface tension liquid-gas,298.34 K,43.82 ± 0.37 mN/m
same,surface tension liquid-gas,303.33 K,43.64 ± 0.36 mN/m
same,surface tension liquid-gas,303.37 K,43.51 ± 0.36 mN/m
same,surface tension liquid-gas,307.96 K,43.24 ± 0.36 mN/m
same,surface tension liquid-gas,308.21 K,43.46 ± 0.36 mN/m
same,surface tension liquid-gas,312.44 K,43.13 ± 0.36 mN/m
same,surface tension liquid-gas,312.88 K,42.9 ± 0.36 mN/m
same,surface tension liquid-gas,317.86 K,42.58 ± 0.36 mN/m
same,surface tension liquid-gas,318.23 K,42.75 ± 0.36 mN/m
same,surface tension liquid-gas,322.81 K,42.21 ± 0.35 mN/m
same,surface tension liquid-gas,322.98 K,42.45 ± 0.36 mN/m
same,surface tension liquid-gas,327.89 K,42.14 ± 0.35 mN/m
same,surface tension liquid-gas,327.91 K,41.94 ± 0.35 mN/m
same,surface tension liquid-gas,332.84 K,41.86 ± 0.35 mN/m
same,surface tension liquid-gas,333.31 K,41.63 ± 0.35 mN/m
same,surface tension liquid-gas,337.59 K,41.57 ± 0.35 mN/m
same,surface tension liquid-gas,337.97 K,41.37 ± 0.35 mN/m
same,surface tension liquid-gas,342.86 K,41.05 ± 0.34 mN/m
same,surface tension liquid-gas,343.06 K,41.34 ± 0.35 mN/m
same,surface tension liquid-gas,348.16 K,40.95 ± 0.34 mN/m
same,surface tension liquid-gas,348.34 K,40.8 ± 0.34 mN/m
same,surface tension liquid-gas,352.78 K,40.47 ± 0.34 mN/m
same,surface tension liquid-gas,352.99 K,40.75 ± 0.34 mN/m
CCCCCCn1cc[n+](C)c1.F[P-](F)(F)(F)(F)F [1-hexyl-3-methylimidazolium hexafluorophosphate],surface tension liquid-gas,284.3 K,39.12 ± 0.33 mN/m
same,surface tension liquid-gas,284.36 K,39.1 ± 0.33 mN/m
same,surface tension liquid-gas,288.16 K,38.86 ± 0.33 mN/m
same,surface tension liquid-gas,288.25 K,38.81 ± 0.33 mN/m
same,surface tension liquid-gas,293.48 K,38.6 ± 0.33 mN/m
same,surface tension liquid-gas,293.56 K,38.7 ± 0.33 mN/m
same,surface tension liquid-gas,298.97 K,38.25 ± 0.32 mN/m
same,surface tension liquid-gas,299.02 K,38.21 ± 0.32 mN/m
same,surface tension liquid-gas,303.58 K,37.99 ± 0.32 mN/m
same,surface tension liquid-gas,303.67 K,37.89 ± 0.32 mN/m
same,surface tension liquid-gas,308.56 K,37.61 ± 0.32 mN/m
same,surface tension liquid-gas,308.58 K,37.78 ± 0.32 mN/m
same,surface tension liquid-gas,313.45 K,37.26 ± 0.32 mN/m
same,surface tension liquid-gas,313.53 K,37.3 ± 0.32 mN/m
same,surface tension liquid-gas,318.45 K,36.88 ± 0.31 mN/m
same,surface tension liquid-gas,318.5 K,36.94 ± 0.31 mN/m
same,surface tension liquid-gas,323.12 K,36.67 ± 0.31 mN/m
same,surface tension liquid-gas,323.16 K,36.78 ± 0.31 mN/m
same,surface tension liquid-gas,327.89 K,36.28 ± 0.31 mN/m
same,surface tension liquid-gas,327.92 K,36.29 ± 0.31 mN/m
same,surface tension liquid-gas,333.78 K,36.05 ± 0.31 mN/m
same,surface tension liquid-gas,333.82 K,35.99 ± 0.31 mN/m
same,surface tension liquid-gas,337.92 K,35.68 ± 0.3 mN/m
same,surface tension liquid-gas,337.94 K,35.74 ± 0.3 mN/m
same,surface tension liquid-gas,343.05 K,35.48 ± 0.3 mN/m
same,surface tension liquid-gas,343.09 K,35.29 ± 0.3 mN/m
same,surface tension liquid-gas,347.67 K,35.21 ± 0.3 mN/m
same,surface tension liquid-gas,347.75 K,35.09 ± 0.3 mN/m
same,surface tension liquid-gas,353.68 K,34.7 ± 0.3 mN/m
same,surface tension liquid-gas,353.76 K,34.87 ± 0.3 mN/m
CCCn1cc[n+](C)c1.F[P-](F)(F)(F)(F)F [1-methyl-3-propylimidazolium hexafluorophosphate],surface tension liquid-gas,318.33 K,46.41 ± 0.39 mN/m
same,surface tension liquid-gas,318.39 K,46.75 ± 0.39 mN/m
same,surface tension liquid-gas,323.12 K,46.09 ± 0.38 mN/m
same,surface tension liquid-gas,323.13 K,46.33 ± 0.39 mN/m
same,surface tension liquid-gas,328.13 K,45.76 ± 0.38 mN/m
same,surface tension liquid-gas,328.14 K,45.93 ± 0.38 mN/m
same,surface tension liquid-gas,332.59 K,45.52 ± 0.38 mN/m
same,surface tension liquid-gas,332.63 K,45.2 ± 0.38 mN/m
same,surface tension liquid-gas,333.28 K,45.82 ± 0.38 mN/m
same,surface tension liquid-gas,338.14 K,45.65 ± 0.38 mN/m
same,surface tension liquid-gas,338.21 K,45.14 ± 0.38 mN/m
same,surface tension liquid-gas,343.25 K,44.83 ± 0.37 mN/m
same,surface tension liquid-gas,343.26 K,44.86 ± 0.37 mN/m
same,surface tension liquid-gas,348.02 K,44.66 ± 0.37 mN/m
same,surface tension liquid-gas,348.08 K,44.54 ± 0.37 mN/m
same,surface tension liquid-gas,352 K,44.38 ± 0.37 mN/m
same,surface tension liquid-gas,352.08 K,44.31 ± 0.37 mN/m
CCCCCCCC[n+]1ccn(C)c1.F[P-](F)(F)(F)(F)F [1-octyl-3-methylimidazolium hexafluorophosphate],surface tension liquid-gas,283.91 K,34.75 ± 0.3 mN/m
same,surface tension liquid-gas,283.92 K,34.62 ± 0.3 mN/m
same,surface tension liquid-gas,287.88 K,34.48 ± 0.29 mN/m
same,surface tension liquid-gas,293.41 K,34.14 ± 0.29 mN/m
same,surface tension liquid-gas,293.42 K,34.36 ± 0.29 mN/m
same,surface tension liquid-gas,298.13 K,33.95 ± 0.29 mN/m
same,surface tension liquid-gas,302.95 K,33.56 ± 0.29 mN/m
same,surface tension liquid-gas,303 K,33.48 ± 0.29 mN/m
same,surface tension liquid-gas,308.1 K,33.27 ± 0.29 mN/m
same,surface tension liquid-gas,308.14 K,33.32 ± 0.29 mN/m
same,surface tension liquid-gas,313.47 K,32.98 ± 0.28 mN/m
same,surface tension liquid-gas,313.51 K,33.16 ± 0.28 mN/m
same,surface tension liquid-gas,318.02 K,32.9 ± 0.28 mN/m
same,surface tension liquid-gas,318.04 K,32.8 ± 0.28 mN/m
same,surface tension liquid-gas,322.73 K,32.52 ± 0.28 mN/m
same,surface tension liquid-gas,322.79 K,32.46 ± 0.28 mN/m
same,surface tension liquid-gas,327.97 K,32.12 ± 0.28 mN/m
same,surface tension liquid-gas,327.98 K,32.25 ± 0.28 mN/m
same,surface tension liquid-gas,332.98 K,32.02 ± 0.28 mN/m
same,surface tension liquid-gas,333.05 K,31.93 ± 0.28 mN/m
same,surface tension liquid-gas,337.93 K,31.81 ± 0.27 mN/m
same,surface tension liquid-gas,337.95 K,31.68 ± 0.27 mN/m
same,surface tension liquid-gas,342.84 K,31.46 ± 0.27 mN/m
same,surface tension liquid-gas,343 K,31.53 ± 0.27 mN/m
same,surface tension liquid-gas,348.12 K,31.26 ± 0.27 mN/m
same,surface tension liquid-gas,348.18 K,31.15 ± 0.27 mN/m
same,surface tension liquid-gas,353.56 K,30.94 ± 0.27 mN/m
same,surface tension liquid-gas,353.62 K,30.83 ± 0.27 mN/m
